“And” between values parts separate entries of the source, which are not always exact repeats. Equal entries are not always repeated.
Tests used:
[1] = test system: K562 human chronic myeloid leukemia subcutaneous xenograft; experiment: Antitumor effect in subcutaneous tumor model of K562 human chronic myeloid leukemia; format: in vivo, NOD/SCID mice
Protocol: (§1) K562 cells were inoculated subcutaneously on the right back of NOD/SCID mice to establish human chronic myeloid leukemia subcutaneous xenograft animal model. When the mean tumor volume reached 130 mm^3, the mice used in the experiment were divided into groups and there were 8 mice in each group, then the mice were injected intravenously twice a week. The therapeutic efficiency was evaluated based on the relative tumor proliferation rate (T/C %).
(§2) K562 cell line was cultured in vitro in RPMI-1640 medium supplemented with fetal bovine serum with a volume ratio of 10% and L-glutamine (2 mM) at 37 with the air containing CO2 with a proportion of 5%. The tumor cells were routinely passaged twice a week. The tumor cells in the exponential growth phase were collected and suspended in the mixture formed by PBS and matirgel with an equal volume, and then placed on ice for inoculation of tumor cells.
(§3) 5×10^6 of K562 cells were inoculated subcutaneously on the right back of the mice used in the experiment, the tumor growth was observed regularly, and stochastic grouping of the mice according to tumor size and body weight in mice and pharmacotherapy were carried out when the mean volume of the tumor reached 130 mm^3.
In this study all the operations related to operating, nursing and treatment were undertaken according to the handbook approved by Association for Assessment and Accreditation of Laboratory Animal Care (AAALAC). […] In everyday observation, the influence of tumor growth on animal normal behaviors (such as exercise, eating, drinking, change of weight, eyes, hair) and any other abnormalities were noticed. Death and clinical symptoms of animals in each group were recorded.
Throughout the experiment, the weight and tumor size of mice were measured twice a week. The computational formula of tumor size was as follows: tumor volume (mm^3)=0.5×(long diameter of tumor x short diameter of tumor^2). According to the tumor size in experimental groups and control group, RTV and T/C ratio were calculated. RTV is the relative tumor volume. T/C ratio is the percentage ratio of relative tumor volumes in the treatment group and the control group at a time point after finish of treatment, and reflects the antitumor pharmacodynamic actions of the different treatment groups.

[2] = test system: PC-3 human prostate cancer subcutaneous xenograft; experiment: Pharmacodynamics in subcutaneous tumor model of PC-3 human prostate cancer; format: in vivo, Balb/c nude mice; settings: PC-3 xenograft; for T/C (%) relative tumor proliferation rate / Relative tumor volume (x ± SE) / Tumor volume (x ± SE) / Effect on tumor growth compared with the solvent control group (in words): 10 mg/kg; for Effect on tumor growth compared with the solvent control group (in words): p values less than 0.01; for Anti-tumor effect compared with dasatinib (in words): same dose 10 mg/kg, 25th day
Protocol: as §1, with “PC-3” for “K562”, “Balb/c nude” for “NOD/SCID”, “prostate cancer” for “chronic myeloid leukemia”, “160” for “130”, “group,” for “group, then”
as §2, with “PC-3” for “K562”, “Ham's F12K” for “RPMI-1640”, “5%, the” for “5%. The”
as §3, with “PC-3” for “K562”, “weas” for “was”, “160” for “130”
In this study all the operations related to operating, nursing and treatment were undertaken according to the handbook approved by Association for Assessment and Accreditation of Laboratory Animal Care (AAALAC). […] In everyday observation, the influence of tumor growth on normal animal behaviors (such as exercise, eating, drinking, change of weight, eyes, hair) and any other abnormalities were noticed. Death and clinical symptoms of animals in each group were recorded.
Throughout the experiment, the weight and tumor size of mice were measured twice a week. The computational formula of tumor size was as follows: tumor volume (mm^3)=0.5×(long diameter of tumor×short diameter of tumor^2). According to the tumor size in experimental groups and control group, RTV and T/C ratio were calculated. RTV is the relative tumor volume. T/C ratio is the percentage ratio of relative tumor volumes in the treatment groups and the control group at a time point after finish of treatment, and reflects the antitumor pharmacodynamic actions of the different treatment groups. When the experiment was finished, the tumors were recorded by photographs in the following two ways: 1. the animals in each group were euthanized by CO2, and the tumor-bearing sides were placed upwards and taken photographs for recording by group; 2. the tumors were removed and weighed first, and T/C values (percentage ratio of tumor weights in treatment groups and the control group) were calculated, and then tumors in each group were placed in order at the same time and taken photographs for recording.

[3] = 5 mg/kg, 14th day after grouping, compared with the solvent control group
[4] = 5 mg/kg, 21st day after grouping, compared with the group using dasatinib
[5] = 5 mg/kg, i.v. twice a week, 14th day after grouping
[6] = 5 mg/kg, i.v. twice a week, 21st day after grouping
[7] = 5 mg/kg, i.v. twice a week, 21st day after grouping, 5 mg/kg
[8] = 5 mg/kg, injected intravenously twice a week, 14th day after grouping, 5 mg/kg
[9] = 5 mg/kg, p values less than 0.001
[10] = 22nd day after grouping, compared with the solvent control group
[11] = 25th day after grouping, compared with the group using dasatinib
[12] = i.v. twice a week, 22nd day after grouping
[13] = i.v. twice a week, 25th day after grouping
[14] = injected intravenously twice a week, 22nd day after grouping
[15] = 5 mg/kg, 21st day after grouping, compared with the group using dasatinib, 5 mg/kg

| Compound | T/C (%) relative tumor proliferation rate [1, 3] [%] | T/C (%) relative tumor proliferation rate [1, 4] [%] | Relative tumor volume (x ± SE) [1, 5] | Relative tumor volume (x ± SE) [1, 6] | Tumor volume (x ± SE) [1, 7] | Tumor volume (x ± SE) [1, 8] | Effect on tumor growth compared with the solvent control group (in words) [1, 9] | Anti-tumor effect compared with dasatinib (in words) ([1]; same dose 5 mg/kg, 21st day) | T/C (%) relative tumor proliferation rate [2, 10] [%] | T/C (%) relative tumor proliferation rate [2, 11] [%] | Relative tumor volume (x ± SE) [2, 12] | Relative tumor volume (x ± SE) [2, 13] | Tumor volume (x ± SE) [2, 13] | Tumor volume (x ± SE) [2, 14] | Effect on tumor growth compared with the solvent control group (in words) [2] | Anti-tumor effect compared with dasatinib (in words) [2] | T/C (%) relative tumor proliferation rate [1, 15] [%] |
| --- | --- | --- | --- | --- | --- | --- | --- | --- | --- | --- | --- | --- | --- | --- | --- | --- | --- |
| ^20k4arm -PEG-OCH2CH2ODS [DSN-1] | 14 | 96 | 254.6 ± 42.2 | 277.5 ± 32.2 | 375 mm^3 and 375 ± 89 mm^3 | 349 mm^3 and 349 ± 76 mm^3 | statistically significant effect of anti-K562 tumor growth | no statistically significant differences | 67 | 79 | 1053.2 ± 107.4 | 975.6 ± 103.5 | 1476 mm^3 and 1476 ± 118 mm^3 | 1649 mm^3 and 1649 ± 142 mm^3 | statistically significant effect of anti-PC-3 tumor growth | more significant |  |
| ^20k4arm -PEG-OCH2CH2OCOODS [DSN-3] | 11.8 |  | 215.4 ± 41.1 | 208 ± 37.6 | 281 mm^3 and 281 ± 56 mm^3 | 295 mm^3 and 295 ± 68 mm^3 | statistically significant effect of anti-K562 tumor growth | more significant | 59 | 70 | 927.5 ± 96.3 | 864.7 ± 74.5 | 1307 mm^3 and 1307 ± 155 mm^3 | 1452 mm^3 and 1452 ± 139 mm^3 | statistically significant effect of anti-PC-3 tumor growth | more significant | 42 |
| ^20k4arm -PEG-OCH2COODS [DSN-2] | 16 | 121 | 282.1 ± 46.3 | 350.3 ± 71.9 | 462 mm^3 and 462 ± 114 mm^3 | 372 mm^3 and 372 ± 80 mm^3 | statistically significant effect of anti-K562 tumor growth | no statistically significant differences | 71 | 88 | 1116.1 ± 98.2 | 1087.1 ± 88.2 | 1644 mm^3 and 1644 ± 146 mm^3 | 1748 mm^3 and 1748 ± 146 mm^3 | statistically significant effect of anti-PC-3 tumor growth | no statistically significant difference |  |
| Cc1nc(Nc2ncc(C(=O)Nc3c(C)cccc3Cl)s2)cc(N2CCN(CCO)CC2)n1 [dasatinib] | 12.4 |  | 226.9 ± 30.0 | 289.1 ± 46.9 | 391 mm^3 and 391 ± 79 mm^3 | 311 mm^3 and 311 ± 55 mm^3 | statistically significant effect of anti-K562 tumor growth |  | 73 |  | 1148.9 ± 112.7 | 1235.3 ± 119.6 | 1868 mm^3 and 1868 ± 76 mm^3 | 1752 mm^3 and 1752 ± 76 mm^3 | statistically significant effect of anti-PC-3 tumor growth |  |  |
| ^20k4arm-PEG-OCH2CH2NHCOODS [DSN-4] | 8.5 |  | 155.5 ± 28.5 | 161.8 ± 18.9 | 219 mm^3 and 219 ± 45 mm^3 | 210 mm^3 and 210 ± 47 mm^3 | statistically significant effect of anti-K562 tumor growth | more significant | 48 | 63 | 754.6 ± 84.5 | 778.1 ± 82.4 | 1177 mm^3 and 1177 ± 120 mm^3 | 1182 mm^3 and 1182 ± 68 mm^3 | statistically significant effect of anti-PC-3 tumor growth | more significant | 36 |

Reference: US9566344B2, “Dasatinib and nonlinear configuration polyethylene glycol conjugate” (priority 2013, dated 2017)
